Data: patent publication US20240069408A1, “LIGHT ABSORPTION MATERIAL, RECORDING MEDIUM, INFORMATION RECORDING METHOD, AND INFORMATION READING METHOD” (Panasonic Intellectual Property Management Co., Ltd., priority 2021, published 2024)

What was measured:
[1] = Measurement of two-photon absorption cross-section (z-scan technique, 405 nm); format: physicochemical; settings: for Two-photon absorption cross-section σ: light of wavelength 405 nm, Ti:sapphire pulsed laser second harmonic, pulse width 80 fs, 1 kHz; for Ratio σ/ε: two-photon absorption cross-section σ (GM) to molar absorption coefficient ε at 405 nm
Text: The two-photon absorption cross-section of the compound A irradiated with light having a wavelength of 405 nm may be greater than or equal to 1 GM, may be greater than or equal to 10 GM, may be greater than or equal to 30 GM, may be greater than or equal to 50 GM, may be greater than or equal to 70 GM, may be greater than or equal to 100 GM, may be greater than or equal to 200 GM, or may be greater than or equal to 300 GM. The upper limit of the two-photon absorption cross-section of the compound A is not particularly limited, and is, for example, 10000 GM. For example, the two-photon absorption cross-section may be measured by the z-scan technique described in J. Opt. Soc. Am. B, 2003, Vol. 20, p. 529. The z-scan technique is widely used as a method for measuring non-linear optical constants. In the z-scan technique, a measurement sample is moved along the beam irradiation direction near the focal point at which the laser beam is focused. During this process, the change in the amount of light transmitted through the measurement sample is recorded. In the z-scan technique, the power density of incident light changes depending on the location of the measurement sample. Thus, when the measurement sample absorbs light non-linearly, the amount of transmitted light is attenuated when the measurement sample is located near the focal point of the laser beam. The two-photon absorption cross-section may be calculated by fitting the changes in the amount of transmitted light based on the theoretical curve predicted from conditions, such as the intensity of the incident light, the thickness of the measurement sample, and the concentration of the compound A in the measurement sample.
The two-photon absorption cross-section of the compounds of Examples and Comparative Examples was measured with respect to light having a wavelength of 405 nm. The measurement of the two-photon absorption cross-section was performed using the z-scan technique described in J. Opt. Soc. Am. B, 2003, Vol. 20, p. 529. The light source used for the measurement of the two-photon absorption cross-section was a Ti:sapphire pulsed laser. Specifically, second harmonic waves from the Ti:sapphire pulsed laser were applied to the sample. The pulse width of the laser was 80 fs. The repetition frequency of the laser was 1 kHz. The average power of the laser was changed in the range of greater than or equal to 0.01 mW and less than or equal to 0.08 mW. […] The full width at half maximum of the light from the laser was 4 nm.

[2] = Measurement of molar absorption coefficient (JIS K0115: 2004, 405 nm); format: physicochemical; settings: absorbance at 405 nm; compound concentration 500 mmol/L
Text: The molar absorption coefficient of the compound A with respect to light having a wavelength of 405 nm may be less than or equal to 50 mol^−1·L·cm^−1, may be less than or equal to 10 mol^−1·L·cm^−1, may be less than or equal to 5 mol^−1·L·c^−1, may be less than or equal to 2 mol^−1·L·cm^−1, or may be less than or equal to 1 mol^−1·L·cm^−1. The lower limit of the molar absorption coefficient of the compound A is not particularly limited, and is, for example, 0.01 mol^−1·L·cm^−1. The molar absorption coefficient may be measured by, for example, a method in accordance with the manual specified in Japanese Industrial Standards (JIS) K0115: 2004. […] In the measurement of the molar absorption coefficient, furthermore, the concentration of the compound A is adjusted to 500 mmol/L. This concentration is very high compared to the concentration in the measurement test of the molar absorption coefficient of an optical absorption peak. The molar absorption coefficient may be used as an index of one-photon absorption.
The compounds of Examples and Comparative Examples were analyzed by a method in accordance with JIS K0115: 2004 to measure the molar absorption coefficient. Specifically, first, a measurement sample was provided in which the concentration of the compound had been controlled to 500 mmol/L. An absorption spectrum of the measurement sample was measured. From the spectrum obtained, the absorbance at a wavelength of 405 nm was read. The molar absorption coefficient was calculated based on the concentration of the compound in the measurement sample and the optical path length of the cell used for the measurement.

SMILES | Two-photon absorption cross-section σ [1] | Molar absorption coefficient ε [2] | Ratio σ/ε [1]
COc1cc(Br)c(-c2cc(OC)c(OC)cc2-c2cc(OC)c(OC)cc2Br)cc1OC [OP3Br] | could not be measured |  | 
COc1cc(Br)c(-c2cc(OC)c(OC)cc2-c2cc(OC)c(OC)cc2-c2cc(OC)c(OC)cc2-c2cc(OC)c(OC)cc2-c2cc(OC)c(OC)cc2-c2cc(OC)c(OC)cc2-c2cc(OC)c(OC)cc2Br)cc1OC [Ex. 2] | 73 GM | 1.01 L/mol/cm | 72
COc1cc(Br)c(-c2cc(OC)c(OC)cc2-c2cc(OC)c(OC)cc2-c2cc(OC)c(OC)cc2Br)cc1OC [Ex. 1] | 51 GM | 1.34 L/mol/cm | 38
OC(C#Cc1ccc(N(c2ccc(C#CC(O)(c3ccccc3)c3ccccc3)cc2)c2ccc(C#CC(O)(c3ccccc3)c3ccccc3)cc2)cc1)(c1ccccc1)c1ccccc1 [compound 2, reference compound] | 380 GM | 70 L/mol/cm | 5
C(#Cc1c(C#Cc2ccccc2)c(C#Cc2ccccc2)c(C#Cc2ccccc2)c(C#Cc2ccccc2)c1C#Cc1ccccc1)c1ccccc1 [compound 1, hexakis(phenylethynyl)benzene, reference compound] | 23000 GM | 2730 L/mol/cm | 10
COc1cc(Br)c(-c2cc(OC)c(OC)cc2-c2cc(OC)c(OC)cc2-c2cc(OC)c(OC)cc2-c2cc(OC)c(OC)cc2-c2cc(OC)c(OC)cc2-c2cc(OC)c(OC)cc2-c2cc(OC)c(OC)cc2-c2cc(OC)c(OC)cc2-c2cc(OC)c(OC)cc2-c2cc(OC)c(OC)cc2-c2cc(OC)c(OC)cc2-c2cc(OC)c(OC)cc2-c2cc(OC)c(OC)cc2-c2cc(OC)c(OC)cc2-c2cc(OC)c(OC)cc2Br)cc1OC [Ex. 5] | 336 GM | 1.51 L/mol/cm | 223
COc1cc(Br)c(-c2cc(OC)c(OC)cc2-c2cc(OC)c(OC)cc2-c2cc(OC)c(OC)cc2-c2cc(OC)c(OC)cc2-c2cc(OC)c(OC)cc2-c2cc(OC)c(OC)cc2-c2cc(OC)c(OC)cc2-c2cc(OC)c(OC)cc2-c2cc(OC)c(OC)cc2-c2cc(OC)c(OC)cc2-c2cc(OC)c(OC)cc2Br)cc1OC [Ex. 3] | 71 GM | 0.50 L/mol/cm | 142
COc1cc(Br)c(-c2cc(OC)c(OC)cc2-c2cc(OC)c(OC)cc2-c2cc(OC)c(OC)cc2-c2cc(OC)c(OC)cc2-c2cc(OC)c(OC)cc2-c2cc(OC)c(OC)cc2-c2cc(OC)c(OC)cc2-c2cc(OC)c(OC)cc2-c2cc(OC)c(OC)cc2-c2cc(OC)c(OC)cc2-c2cc(OC)c(OC)cc2-c2cc(OC)c(OC)cc2-c2cc(OC)c(OC)cc2Br)cc1OC [Ex. 4] | 82 GM | 0.49 L/mol/cm | 167
